Assay results: patent US11338012B2, “BRAF-based polypeptides for treatment of cancer” (UNIVERSITY OF THE SCIENCES, priority 2019, dated 2022)
Where no end group is shown, it is not given here.

How the values were obtained:
HCT116 cells = experiment: WST cell viability assay, HCT116; type: cell-based; settings: 48 hr
Description: (§1) Western blots are representative of at least three independent experiments. […] Cell viability was determined through the WST assay according to manufacturer's instructions. IC50 values were obtained from a dose-response curve (4-parameter logistic equation) in Origin, from three independent experiments.
(§2) Cells were seeded onto poly-lysine coated, clear-bottomed, 96-well plates at 15000 cells per well. […] Upon 48 hr treatment, cell viability was determined through the WST cell viability assay. According to manufacturers' instructions, 10 μL of the WST reagent was added to each well and incubated at 37° C. for 4 hrs. Absorbance readings for the plate were then taken at 450 nm in a Biotek plate reader.

p61 BRAF^V600E = target: T1, p61 BRAF^V600E (Homo sapiens, UniProt P15056, DEL169-380/V600E); experiment: Immunoblotting of HEK293 cells transfected with p61-BRAF^V600E; type: cell-based; settings: increasing concentrations, 4 hr
T1 construct: expressed in transfected cells; host or cells: HEK293
T1 sequence (P15056 with tags, fused parts or gaps DEL169-380/V600E): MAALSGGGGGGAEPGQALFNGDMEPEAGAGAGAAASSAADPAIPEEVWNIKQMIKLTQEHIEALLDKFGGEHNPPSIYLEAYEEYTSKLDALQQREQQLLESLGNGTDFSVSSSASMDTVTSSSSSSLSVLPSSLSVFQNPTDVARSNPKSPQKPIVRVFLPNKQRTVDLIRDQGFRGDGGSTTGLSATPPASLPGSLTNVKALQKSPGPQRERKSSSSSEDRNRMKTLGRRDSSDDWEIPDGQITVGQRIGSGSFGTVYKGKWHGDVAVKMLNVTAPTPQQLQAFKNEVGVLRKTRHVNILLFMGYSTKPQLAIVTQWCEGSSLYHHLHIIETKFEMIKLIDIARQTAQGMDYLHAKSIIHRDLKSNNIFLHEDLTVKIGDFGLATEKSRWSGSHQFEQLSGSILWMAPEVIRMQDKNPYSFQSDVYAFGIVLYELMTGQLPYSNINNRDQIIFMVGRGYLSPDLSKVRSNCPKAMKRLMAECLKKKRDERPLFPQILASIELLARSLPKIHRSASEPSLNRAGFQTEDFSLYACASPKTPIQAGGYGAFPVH

BRAF^WT in HEK293 cells = target: T2, BRAF^WT in HEK293 cells (Homo sapiens, UniProt P15056); experiment: BRAF degradation: bortezomib rescue and cycloheximide half-life in HEK293 cells; type: cell-based; settings: pre-treated with 0.4 μM Bortezomib 5 hr, then 75 and 100 μM peptide 4 hr
T2 construct: expressed in transfected cells; host or cells: HEK293
T2 sequence (P15056 whole entry): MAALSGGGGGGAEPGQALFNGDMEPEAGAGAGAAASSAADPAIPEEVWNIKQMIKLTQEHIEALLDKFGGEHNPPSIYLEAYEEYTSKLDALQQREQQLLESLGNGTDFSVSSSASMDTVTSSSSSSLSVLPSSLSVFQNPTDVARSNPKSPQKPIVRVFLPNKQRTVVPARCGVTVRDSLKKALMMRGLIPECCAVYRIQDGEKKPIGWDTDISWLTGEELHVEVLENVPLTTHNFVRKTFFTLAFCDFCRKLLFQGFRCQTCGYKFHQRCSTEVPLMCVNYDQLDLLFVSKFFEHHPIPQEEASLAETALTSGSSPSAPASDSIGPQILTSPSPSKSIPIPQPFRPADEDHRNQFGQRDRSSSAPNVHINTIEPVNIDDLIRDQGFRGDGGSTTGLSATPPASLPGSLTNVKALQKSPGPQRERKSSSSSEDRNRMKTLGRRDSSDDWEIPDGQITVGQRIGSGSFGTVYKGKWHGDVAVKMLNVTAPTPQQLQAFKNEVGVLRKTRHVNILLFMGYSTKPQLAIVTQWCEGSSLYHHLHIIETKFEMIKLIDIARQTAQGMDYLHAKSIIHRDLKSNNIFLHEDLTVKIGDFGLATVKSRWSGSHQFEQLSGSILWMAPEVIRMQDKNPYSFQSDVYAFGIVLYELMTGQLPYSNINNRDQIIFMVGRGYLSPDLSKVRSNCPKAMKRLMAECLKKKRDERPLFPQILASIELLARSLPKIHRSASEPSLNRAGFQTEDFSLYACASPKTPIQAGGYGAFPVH
Description: FIG. 3B illustrates quantification of BRAF protein levels after rescue with Bortezomib. […] FIG. 3D illustrates quantification of the Western Blot to determine the half-life (t,1/2) of BRAF. Western blots are representative of at least three independent experiments.
HEK293 cells transiently transfected with wild-type BRAF were treated with cycloheximide.

HCT-15 cells = experiment: WST cell viability assay, HCT-15; type: cell-based; settings: 48 hr
Description: as §1, §2

[1] = tested on: MAPK pathway in the HCT116 cell line; experiment: MAPK pathway inhibition in HCT116 cells (immunoblotting); type: cell-based; settings: 0-75 μM, 4 hr; read-out: IC50 of MAPK pathway inhibition (phospho-MEK, phospho-ERK, degradation of endogenous BRAF and MEK)
Description: as §1

[2] = tested on: BRAF^WT/G469A kinase activity in HEK293 cells; experiment: Immunoblotting of HEK293 cells transiently transfected with BRAF^WT/G469A (pMEK, BRAF, MEK levels); type: cell-based; settings: 0-100 μM, 4 hrs
Description: FIGS. 2A-2C illustrate TAT-tagged Braftide inhibits BRAF^WT/G469A kinase activity in HEK293 cells. HEK293 cells transiently transfected with BRAF^WT/G469A were treated with TAT-braftide or TAT peptide at the indicated concentrations (0, 10, 25, 50, 75, and 100 μM) for 4 hrs. Cell lysates were subjected to immunoblotting with the indicated antibodies: anti-BRAF, anti-pMEK, and anti-Actin. FIG. 2A illustrates effect of TAT-braftide on BRAF^WT/G469A kinase activity in HEK293 cells. FIG. 2B illustrates effect of TAT control peptide on BRAF^WT/G469A kinase activity in HEK293 cells. Western blots are representative of at least three independent experiments. The band intensities from the Western Blots were quantified in ImageJ. FIG. 2C illustrates confocal microscopy images of HEK293 cells treated with 25 μM braftide-Cy3 for 2 hr and stained with FLAG antibody for BRAF.
HEK293 cells were plated at one million cells per 2 mL :DMEM supplemented with 10% FBS and 1% L-glutarnine. These cells were incubated at 37° C. with 5% CO2 for 24 hours or until the cells reach a confluency of 40-60%. DNA (1-3 μg) was mixed with PEI-MAX in a 1:3 ratio in Opti-MEM at RT for ˜25 minutes and added onto the cells with fresh media. After 48 hrs, the cells were washed with cold PBS, harvested, lysed with 4% SDS and homogenized. For peptide assays, 48 hrs post-transfection, cells were treated with TAT-Braftide/TAT control in reduced serum media at the indicated concentrations for 4 hrs. The cells were then washed twice with PBS, lysed as above and quantified with the BCA protein assay. Equal amounts of cell lysates were loaded for immunoblotting and then probed for relevant proteins. […] Protein concentrations were determined with BCA assays for immunoblotting.
Braftide was conjugated with the TAT sequence ([…]; SEQ ID NO:2), a cell-penetrating peptide widely used in peptide drugs. […] The activity of BRAF was quantified by probing for phospho-MEK1/2. […] A Cy3-tagged version of braftide was synthesized and evaluated for its ability of crossing the plasma membrane using immunofluorescence experiments. […]

[3] = tested on: MAPK signaling in HEK293 cells overexpressing wild-type BRAF or BRAF^G469A; experiment: Cell-based synergy assay of TAT-braftide with ATP-competitive inhibitors in HEK293 cells overexpressing BRAF^WT or BRAF^G469A
Description: IC50 values were obtained from a dose-response curve (4-parameter logistic equation) in Origin, from three independent experiments. […] Western blots are representative of at least three independent experiments.
Cell lysates were subjected to immunoblotting for the indicated proteins.
HEK293 cells were plated at one million cells per 2 mL :DMEM supplemented with 10% FBS and 1% L-glutarnine. These cells were incubated at 37° C. with 5% CO2 for 24 hours or until the cells reach a confluency of 40-60%. DNA (1-3 μg) was mixed with PEI-MAX in a 1:3 ratio in Opti-MEM at RT for ˜25 minutes and added onto the cells with fresh media. After 48 hrs, the cells were washed with cold PBS, harvested, lysed with 4% SDS and homogenized. […] The cells were then washed twice with PBS, lysed as above and quantified with the BCA protein assay. Equal amounts of cell lysates were loaded for immunoblotting and then probed for relevant proteins. […] Cells were washed twice with PBS and processed as above. Protein concentrations were determined with BCA assays for immunoblotting.
The efficacy of current ATP-competitive BRAF inhibitors is limited to BRAF^V600E that signals as a monomer.

[4] = dabrafenib alone, wild-type BRAF, 1 hr

## Braftide conjugated with the TAT sequence (GRKKRRQRRRPQ; SEQ ID NO:2), a cell-penetrating peptide (GRKKRRQRRRPQTRHVNILLFM; also: possible unspecified modification flagged (lipid/PEG, unknown token)) [TAT-braftide]
HCT116 cells; WST assay, read-out: EC50 of inhibition of cell growth, HCT116
  EC50: 5 µM
p61 BRAF^V600E
  pMEK and pERK levels: A decrease in both pMEK and pERK levels was observed
  protein level of p61: not affected as dramatically as wild-type BRAF
BRAF^WT in HEK293 cells
  kinase activity of BRAF after proteasome inhibition: still successfully inhibited the kinase activity of BRAF
HCT-15 cells; WST assay, read-out: EC50 of inhibition of cell growth, HCT-15
  EC50: 9 µM
[1]
  IC50: < 10 µM
[2]
  activity of BRAF (phospho-MEK1/2): significantly reduced the activity of BRAF in a dose-dependent manner
  protein levels of overexpressed BRAF and endogenous MEK1: markedly decreased in a dose-dependent manner

## CCCS(=O)(=O)Nc1ccc(F)c(C(=O)c2c[nH]c3ncc(-c4ccc(Cl)cc4)cc23)c1F [vemurafenib, N-(3-{[5-(4-Chlorophenyl)-1H-pyrrolo[2,3-b]pyridin-3-yl]carbonyl}-2,4-difluorophenyl)propane-1-sulfonamide]
[3]; braftide 75 μM 2 hr, then vemurafenib 1 hr
  synergy with braftide: same synergy effect between vemurafenib and braftide was validated

## GRKKRRQRRRPQ [TAT peptide, cell-penetrating peptide used as the negative control, reference compound]
HCT116 cells; at concentrations up to 100 μM
  cell death, HCT116: no cell death was observed
HCT-15 cells; at concentrations up to 100 μM
  cell death, HCT-15: no cell death was observed
[2]
  activity of BRAF (phospho-MEK1/2): no inhibition effect was observed

## CC(C)(C)c1nc(-c2cccc(NS(=O)(=O)c3c(F)cccc3F)c2F)c(-c2ccnc(N)n2)s1 [dabrafenib, N-{3-[5-(2-aminopyrimidin-4-yl)-2-tert-butyl-1,3-thiazol-4-yl]-2-fluorophenyl}-2,6-difluorobenzenesulfonamide]
[3]; [4]
  concentration at which dabrafenib performed as an inhibitor: above 10 μM
  effect on MAPK signaling at lower concentrations: activated the MAPK signaling at lower concentrations
